Laboratory results from US12582667B2, “Compositions and methods to treat metastatic gastrointestinal cancer” (The Rockefeller University, priority 2019, dated 2026).

What was measured:
LS174T cells [1] = test: Subcutaneous tumor growth of 3-MPA pre-treated LS174T cells; format: in vivo, mouse; conditions: pre-treatment of LS174T cells with 3-MPA
LS174T cells [2] = test: 3-Mercaptopicolinic acid in vitro growth assay; format: cell-based, human; conditions: 24-hour exposure to 1 mM 3 MPA in media, terminated on day 5
Protocol: 3-Mercaptopicolinic Acid In Vitro Growth Assay
LS174T cells were seeded in 6-well plates. On day 1, the media was replaced with either control media or media supplemented with 1 mM 3 MPA. On day 2, all the media was replaced with control media. The experiment was terminated on day 5.
2×10^4 LS174T cells were seeded in triplicate. On day 1, the media was replaced with either control media or media supplemented with 1 mM 3 MPA. On day 2, all the media was replaced with control media. The experiment was terminated on day 5.

CRC cells [3] = test: Liver colonization after portal circulation injection of 3-MPA pre-treated CRC cells; format: in vivo, mouse; conditions: cells pre-treated in vitro for 24 hours, then portal circulation injection; p=0.01
Protocol: (§1) All animal work was conducted in accordance with a protocol approved by the Institutional Animal Care and Use Committee (IACUC) at The Rockefeller University and Memorial Sloan Kettering Cancer Center. […] For functional studies of PCK1, colorectal cancer cells (SW480 or LS174T) that had been stably transduced with a luciferase reporter (Ponomarev et al., 2004) were subjected to portal circulation injection in NSG mice; after two minutes, a splenectomy was performed. For functional and pharmacology studies of DHODH, colorectal cancer cells (Lvm3b) that had been stably transduced with a luciferase reporter were subjected to portal circulation injection in athymic nude mice; after two minutes, a splenectomy was performed. Mice were imaged weekly; experiments were terminated when the luciferase signal had saturated or the mice were too ill, whichever occurred first.
Due to the strong reduction in mCRC liver colonization observed upon PCK1 depletion, it was hypothesized that PCK1 inhibition may represent a potential therapeutic strategy for impairing CRC metastatic progression. In vivo proof-of-principle experiments were performed in two independent CRC cell lines with a PCK1-inhibitor, 3-mercaptopicolinic acid (3-MPA) (N. W. DiTullio, et al. Biochem J 138, 387-394 (1974)). […]

LS174T cells [4] = test: Oral gavage of 3-MPA, LS174T liver colonization model; format: in vivo, mouse; conditions: oral gavage 200 mg/kg prior to cell injection and on day one
Protocol: as §1
Chow was removed from cages four hours prior to injection of LS174T cells. Gavage with either 3-MPA (200 mg/kg in aqueous solution) or placebo was performed one hour prior to the injection of LS174T cells. 1×10^6 LS174T cells were injected into the portal systemic circulation as described in the Animals section above. Chow was returned to cages after injection. On day 1, chow was removed from cages; 3-MPA or placebo was administered via gavage four hours post-chow removal. […]

Lvm3b cells [5] = conditions: K. Bracht, et al. Br J Cancer 103, 340-346 (2010); cited from earlier work
[6] = tested on: two distinct CRC populations; test: Primary tumor growth of CRC populations under leflunomide; format: in vivo; conditions: leflunomide treatment
Lvm3b cells [7] = test: Lvm3b liver metastatic colonization in athymic nude mice; format: in vivo, mouse
Protocol: FIGS. 3A and 3B are a set of diagrams showing the effects of the DHODH inhibitor in inhibiting liver metastatic colonization. […] The mice were imaged every week. Firefly luciferase bioluminescent images are shown (p<0.0001, Student's t-test).
as §1
Chow was removed from cages four hours prior to injection of LS174T cells. Gavage with either 3-MPA (200 mg/kg in aqueous solution) or placebo was performed one hour prior to the injection of LS174T cells. 1×10^6 LS174T cells were injected into the portal systemic circulation as described in the Animals section above. Chow was returned to cages after injection. On day 1, chow was removed from cages; 3-MPA or placebo was administered via gavage four hours post-chow removal. Chow was returned to cages four hours after drug administration. Mice were imaged bi-weekly. […] An equivalent volume of DMSO was intraperitoneally injected every day to the control cohort.
To directly test this, highly metastatic LVM3b CRC cells of DHODH were depleted.

CRC cells [8] = test: In vitro hypoxia cell growth assay with leflunomide; format: cell-based, human; conditions: for impairment of proliferation, hypoxia versus normoxia: hypoxia compared with normoxia
Protocol: In Vitro Hypoxia Cell Growth Assays
Lvm3b cells or LS174T cells were grown under normoxia for 24 hours followed by incubation for 5 days under 0.5% oxygen and then counted using the Sceptor 2.0 automated Cell Counter (Millipore).
Dihydroorotate Dehydrogenase (DHODH) is a key enzyme in the metabolic pathway that […] dihydroorotate to orotate, which is ultimately converted to the pyrimidine nucleotides UTP and CTP. To further confirm that pyrimidine biosynthesis promotes CRC hypoxic growth, CRC growth upon DHODH inhibition was assessed.

GAS HI tumor = test: GAS HI patient-derived tumor growth in athymic nude mice; format: in vivo, mouse; conditions: uridine administration, patient-derived tumor (FIG. 5B; text says FIGS. 5A and 5B)
CRC cells [9] = test: Uridine rescue of hypoxic growth of PCK1 depleted CRC cells; format: cell-based, human; conditions: uridine supplementation, hypoxia
Protocol: In Vitro Hypoxia Cell Growth Assays Lvm3b cells or LS174T cells were grown under normoxia for 24 hours followed by incubation for 5 days under 0.5% oxygen and then counted using the Sceptor 2.0 automated Cell Counter (Millipore). The above findings reveal that liver metastatic CRC cells enhance pyrimidine levels and that PCK1 drives pyrimidine nucleotide levels under hypoxia. […] To directly test this, whether the growth defect of PCK1 depletion upon hypoxia could be rescued by the pyrimidine nucleoside uridine was determined. […] The results reveal PCK1 induction to be a mechanism employed by CRC cells to enhance pyrimidine nucleotide levels under hypoxia to promote growth.

HS746T cells = test: HS746T subcutaneous tumor growth in NSG mice; format: in vivo, mouse; conditions: uridine administration, HS746T tumor (FIG. 4C)
Protocol: MPK: mg/kg body weight of mouse. Tumor size was measured by a digital caliper, and tumor volume was calculated as volume=[…].
Cg-Prkdc^scid Il2rg^tm1Wjl/SzJ (Nod-Scid-Gamma; NSG) mice (n=4 per each cohort).

Solubility of β-GPA = format: physicochemical

O=C(O)c1ncccc1S [3-MPA, 3-mercaptopicolinic acid]
subcutaneous tumor growth (LS174T cells [1]): did not, however, alter subcutaneous tumor growth | cell growth in vitro (LS174T cells [2]): did not alter cell proliferation in vitro | cell growth in vitro (LS174T cells [2]; listed as 3 MPA): does not alter | mCRC liver colonization in vivo (CRC cells [3]): significantly reduced | colorectal cancer liver colonization (LS174T cells [4]): decreased colorectal cancer liver colonization

O=c1[nH]cc(F)c(=O)[nH]1 [5-FU, 5-fluorouracil]
resistance of cells to the drug (Lvm3b cells [5]): highly resistant

Cc1oncc1C(=O)Nc1ccc(C(F)(F)F)cc1 [leflunomide]
primary tumor growth [6]: only modestly impacted | reduction in CRC liver metastatic colonization (Lvm3b cells [7]; 7.5 mg/kg body weight intraperitoneally every day, athymic nude mice, versus DMSO): ~90 fold | liver metastatic colonization of Lvm3b cells (luciferase bioluminescence) (Lvm3b cells [7]; 7.5 mg/kg from day 1, n=4, p<0.0001, Student's t-test): inhibited liver metastatic colonization | survival (Kaplan-Meier) (Lvm3b cells [7]; 7.5 mg/kg, versus control mice, p=0.006): significantly longer survival | CRC growth in the context of hypoxia (CRC cells [8]; hypoxia (0.5% oxygen)): significantly impaired | impairment of proliferation, hypoxia versus normoxia (CRC cells [8]): impaired proliferation significantly more in the context of hypoxia than under normoxia | impairment of proliferation, hypoxia versus normoxia (CRC cells [8]; listed as Leflunomide): more significant under hypoxia than normoxia

O=c1ccn([C@@H]2O[C@H](CO)[C@@H](O)[C@H]2O)c(=O)[nH]1 [uridine]
rescue of leflunomide induced tumor growth suppression (GAS HI tumor): rescued | rescue of hypoxic growth defect upon PCK1 depletion (CRC cells [9]): rescued the hypoxic growth defect | rescue of leflunomide-induced tumor growth reduction (HS746T cells): rescued | rescue of leflunomide-impaired growth upon hypoxia (CRC cells [8]; uridine supplementation, hypoxia, leflunomide treatment): rescued

N=C(N)NCCC(=O)O [β-GPA, beta-guanidinopropionic acid]
solubility in organic solvents (Solubility of β-GPA; organic solvents): low solubility | solubility (Solubility of β-GPA; water): > 50 mg/mL
